Source: ChEMBL document CHEMBL5046233, “Nitroxoline and its derivatives are potent inhibitors of metallo-β-lactamases” (Eur J Med Chem, 2022)

System: not listed separately
Assay: Inhibition of recombinant NDM-1 (unknown origin) using fluorocillin as substrate at 30 uM incubated for 30 mins by fluorescence based assay
Details: Bacteria

Compound | inhibition [%]
CN(CC#N)C(=O)c1ccc2c([N+](=O)[O-])ccc(O)c2n1 | < 20
O=C(c1cc([N+](=O)[O-])c2cccnc2c1O)N1CCOCC1 | 16
Nc1c(O)cc(S(=O)(=O)O)c2ccccc12 | < 20
Oc1ccc(F)c2cccnc12 | < 20
Cc1ccc2c(Cl)cc(Cl)c(O)c2n1 | 91
Nc1c([N+](=O)[O-])cc([N+](=O)[O-])c2cccnc12 | < 20
O=C(O)c1ccc([N+](=O)[O-])c2cccnc12 | < 20
CCNCc1cc([N+](=O)[O-])c2cccnc2c1O | 88
N#CCN(Cc1ccccc1)C(=O)c1ccc2c([N+](=O)[O-])cc([N+](=O)[O-])c(O)c2n1 | < 20
Oc1ccc(C(F)(F)F)c2cccnc12 | < 20
O=[N+]([O-])c1ccc(O)c2ccccc12 | < 20
CN(CC#N)Cc1cc([N+](=O)[O-])c2cccnc2c1O | 82
O=C(O)c1ccc(O)c2ncccc12 | 39
O=[N+]([O-])c1ccc(N2CCCC2)c2ncccc12 | < 20
Nc1ccc2cccc(O)c2n1 | < 20
N#CC1(NC(=O)c2ccc3c([N+](=O)[O-])ccc(O)c3n2)CC1 | < 20
N#CC1(NC(=O)c2cc([N+](=O)[O-])c3cccnc3c2O)CC1 | < 20
Cc1ccc2c([N+](=O)[O-])cc([N+](=O)[O-])c(O)c2n1 | < 20
Cc1cc(C)c2cccnc2c1O | < 20
O=[N+]([O-])c1cc(CNCc2ccccc2)c(O)c2ncccc12 | 76
CN(CC#N)C(=O)c1ccc2c([N+](=O)[O-])cc([N+](=O)[O-])c(O)c2n1 | < 20
Cc1ccc2cccc(O)c2n1 | < 20
O=C(O)c1ccc2cccc(O)c2n1 | 100
N#CCNC(=O)c1ccc2c([N+](=O)[O-])ccc(O)c2n1 | < 20
CC(=O)Nc1ccc([N+](=O)[O-])c2cccnc12 | < 20
Nc1ccc2c([N+](=O)[O-])ccc(O)c2n1 | 93
O=S(=O)(O)c1ccc(O)c2ncccc12 | 67
Oc1c(Cl)cc(Cl)c2cccnc12 | 99
O=C(O)COc1cccc2cccnc12 | < 20

System: not listed separately
Assay: Inhibition of recombinant NDM-1 (unknown origin) using fluorocillin as substrate at 10 uM incubated for 30 mins by fluorescence based assay
Details: Bacteria

Compound | inhibition [%]
CN(CC#N)C(=O)c1ccc2c([N+](=O)[O-])ccc(O)c2n1 | < 20
O=C(c1cc([N+](=O)[O-])c2cccnc2c1O)N1CCOCC1 | < 20
Nc1c(O)cc(S(=O)(=O)O)c2ccccc12 | < 20
Oc1ccc(F)c2cccnc12 | < 20
Cc1ccc2c(Cl)cc(Cl)c(O)c2n1 | 71
Nc1c([N+](=O)[O-])cc([N+](=O)[O-])c2cccnc12 | < 20
O=C(O)c1ccc([N+](=O)[O-])c2cccnc12 | < 20
CCNCc1cc([N+](=O)[O-])c2cccnc2c1O | 40
N#CCN(Cc1ccccc1)C(=O)c1ccc2c([N+](=O)[O-])cc([N+](=O)[O-])c(O)c2n1 | < 20
Oc1ccc(C(F)(F)F)c2cccnc12 | < 20
O=[N+]([O-])c1ccc(O)c2ccccc12 | < 20
CN(CC#N)Cc1cc([N+](=O)[O-])c2cccnc2c1O | < 20
O=C(O)c1ccc(O)c2ncccc12 | < 20
O=[N+]([O-])c1ccc(N2CCCC2)c2ncccc12 | < 20
Nc1ccc2cccc(O)c2n1 | < 20
N#CC1(NC(=O)c2ccc3c([N+](=O)[O-])ccc(O)c3n2)CC1 | < 20
N#CC1(NC(=O)c2cc([N+](=O)[O-])c3cccnc3c2O)CC1 | < 20
Cc1ccc2c([N+](=O)[O-])cc([N+](=O)[O-])c(O)c2n1 | < 20
Cc1cc(C)c2cccnc2c1O | < 20
O=[N+]([O-])c1cc(CNCc2ccccc2)c(O)c2ncccc12 | 23
CN(CC#N)C(=O)c1ccc2c([N+](=O)[O-])cc([N+](=O)[O-])c(O)c2n1 | < 20
Cc1ccc2cccc(O)c2n1 | < 20
O=C(O)c1ccc2cccc(O)c2n1 | 97
N#CCNC(=O)c1ccc2c([N+](=O)[O-])ccc(O)c2n1 | < 20
CC(=O)Nc1ccc([N+](=O)[O-])c2cccnc12 | < 20
Nc1ccc2c([N+](=O)[O-])ccc(O)c2n1 | 46
O=S(=O)(O)c1ccc(O)c2ncccc12 | < 20
Oc1c(Cl)cc(Cl)c2cccnc12 | 98
O=C(O)COc1cccc2cccnc12 | < 20

System: not listed separately
Assay: Inhibition of recombinant NDM-1 (unknown origin) using fluorocillin as substrate at 3 uM incubated for 30 mins by fluorescence based assay
Details: Bacteria

Compound | inhibition [%]
CN(CC#N)C(=O)c1ccc2c([N+](=O)[O-])ccc(O)c2n1 | < 20
O=C(c1cc([N+](=O)[O-])c2cccnc2c1O)N1CCOCC1 | < 20
Nc1c(O)cc(S(=O)(=O)O)c2ccccc12 | < 20
Oc1ccc(F)c2cccnc12 | < 20
Cc1ccc2c(Cl)cc(Cl)c(O)c2n1 | < 20
Nc1c([N+](=O)[O-])cc([N+](=O)[O-])c2cccnc12 | < 20
O=C(O)c1ccc([N+](=O)[O-])c2cccnc12 | < 20
CCNCc1cc([N+](=O)[O-])c2cccnc2c1O | < 20
N#CCN(Cc1ccccc1)C(=O)c1ccc2c([N+](=O)[O-])cc([N+](=O)[O-])c(O)c2n1 | < 20
Oc1ccc(C(F)(F)F)c2cccnc12 | 13
O=[N+]([O-])c1ccc(O)c2ccccc12 | < 20
CN(CC#N)Cc1cc([N+](=O)[O-])c2cccnc2c1O | < 20
O=C(O)c1ccc(O)c2ncccc12 | < 20
O=[N+]([O-])c1ccc(N2CCCC2)c2ncccc12 | < 20
Nc1ccc2cccc(O)c2n1 | < 20
N#CC1(NC(=O)c2ccc3c([N+](=O)[O-])ccc(O)c3n2)CC1 | < 20
N#CC1(NC(=O)c2cc([N+](=O)[O-])c3cccnc3c2O)CC1 | < 20
Cc1ccc2c([N+](=O)[O-])cc([N+](=O)[O-])c(O)c2n1 | < 20
Cc1cc(C)c2cccnc2c1O | < 20
O=[N+]([O-])c1cc(CNCc2ccccc2)c(O)c2ncccc12 | < 20
CN(CC#N)C(=O)c1ccc2c([N+](=O)[O-])cc([N+](=O)[O-])c(O)c2n1 | < 20
Cc1ccc2cccc(O)c2n1 | < 20
O=C(O)c1ccc2cccc(O)c2n1 | 24
N#CCNC(=O)c1ccc2c([N+](=O)[O-])ccc(O)c2n1 | < 20
CC(=O)Nc1ccc([N+](=O)[O-])c2cccnc12 | < 20
Nc1ccc2c([N+](=O)[O-])ccc(O)c2n1 | < 20
O=S(=O)(O)c1ccc(O)c2ncccc12 | < 20
Oc1c(Cl)cc(Cl)c2cccnc12 | < 20
O=C(O)COc1cccc2cccnc12 | < 20

System: Bacteria
Assay: Inhibition of recombinant VIM-1 (unknown origin) using fluorocillin as substrate at 30 uM incubated for 30 mins by fluorescence based assay
Details: not given

Compound | inhibition [%]
Cc1ccc2c(Cl)cc(Cl)c(O)c2n1 | 84
CCNCc1cc([N+](=O)[O-])c2cccnc2c1O | 98
O=C(O)c1ccc2cccc(O)c2n1 | 91
Nc1ccc2c([N+](=O)[O-])ccc(O)c2n1 | 72
Oc1c(Cl)cc(Cl)c2cccnc12 | 97

System: Bacteria
Assay: Inhibition of recombinant VIM-1 (unknown origin) using fluorocillin as substrate at 10 uM incubated for 30 mins by fluorescence based assay
Details: not given

Compound | inhibition [%]
Cc1ccc2c(Cl)cc(Cl)c(O)c2n1 | 58
CCNCc1cc([N+](=O)[O-])c2cccnc2c1O | 53
O=C(O)c1ccc2cccc(O)c2n1 | 54
Nc1ccc2c([N+](=O)[O-])ccc(O)c2n1 | 37
Oc1c(Cl)cc(Cl)c2cccnc12 | 90

System: Bacteria
Assay: Inhibition of recombinant VIM-1 (unknown origin) using fluorocillin as substrate at 3 uM incubated for 30 mins by fluorescence based assay
Details: not given

Compound | inhibition [%]
Cc1ccc2c(Cl)cc(Cl)c(O)c2n1 | 20
CCNCc1cc([N+](=O)[O-])c2cccnc2c1O | < 20
O=C(O)c1ccc2cccc(O)c2n1 | 32
Nc1ccc2c([N+](=O)[O-])ccc(O)c2n1 | 20
Oc1c(Cl)cc(Cl)c2cccnc12 | 23

System: Bacteria
Assay: Inhibition of recombinant IMP-1 (unknown origin) using fluorocillin as substrate at 30 uM incubated for 30 mins by fluorescence based assay
Details: not given

Compound | inhibition [%]
Cc1ccc2c(Cl)cc(Cl)c(O)c2n1 | 92
CCNCc1cc([N+](=O)[O-])c2cccnc2c1O | 92
O=C(O)c1ccc2cccc(O)c2n1 | 95
Nc1ccc2c([N+](=O)[O-])ccc(O)c2n1 | 74
Oc1c(Cl)cc(Cl)c2cccnc12 | 97

System: Bacteria
Assay: Inhibition of recombinant IMP-1 (unknown origin) using fluorocillin as substrate at 10 uM incubated for 30 mins by fluorescence based assay
Details: not given

Compound | inhibition [%]
Cc1ccc2c(Cl)cc(Cl)c(O)c2n1 | 73
CCNCc1cc([N+](=O)[O-])c2cccnc2c1O | 53
O=C(O)c1ccc2cccc(O)c2n1 | 72
Nc1ccc2c([N+](=O)[O-])ccc(O)c2n1 | 38
Oc1c(Cl)cc(Cl)c2cccnc12 | 95

System: Bacteria
Assay: Inhibition of recombinant IMP-1 (unknown origin) using fluorocillin as substrate at 3 uM incubated for 30 mins by fluorescence based assay
Details: not given

Compound | inhibition [%]
Cc1ccc2c(Cl)cc(Cl)c(O)c2n1 | 22
CCNCc1cc([N+](=O)[O-])c2cccnc2c1O | < 20
O=C(O)c1ccc2cccc(O)c2n1 | 27
Nc1ccc2c([N+](=O)[O-])ccc(O)c2n1 | < 20
Oc1c(Cl)cc(Cl)c2cccnc12 | 34
